Key:
human PCSK9 = experiment: In vivo plasma PCSK9 lowering in humanized PCSK9 mice; set-up: species or system mouse; conditions: hPCSK9 mice, single oral dose 500 mg/kg, relative to hour zero (baseline) levels
From the text: A humanized PCSK9 mouse model was developed to assess compound activity in vivo. This model was established by first generating a transgenic mouse containing the full-length human PCSK9 gene and its promoter through pronuclear injection of the bacterial artificial chromosome (BAC), RP11-627J9, into C57B16J mice. Mice containing the human PCSK9 transgene were then bred with PCSK9 knockout mice on a 129/C57BL6J background (Rashid S, Curtis D E, Garuti R, et al. Decreased plasma cholesterol and hypersensitivity to statins in mice lacking Pcsk9. Proc Natl Acad Sci USA 2005; 102(15):5374-9). […] For example, ethyl (S)-1-{5-[4-(4-{(3-chloropyridin-2-yl)[(3R)-piperidin-3-yl]carbamoyl}-2-fluorophenyl)-1-methyl-1H-pyrazol-5-yl]-1H-tetrazol-1-yl}ethyl carbonate (the parent molecule) was dosed orally and plasma and liver concentrations were measured for the metabolite, N-(3-chloropyridin-2-yl)-3-fluoro-4-[1-methyl-5-(2H-tetrazol-5-yl)-1H-pyrazol-4-yl]-N-[(3R)-piperidin-3-yl]benzamide. Quantitation of human plasma PCSK9 was performed using a commercially available sandwich ELISA kit (R&D Systems, DPC900) incorporating a horse radish peroxidase (HRP) conjugated secondary antibody (R&D Systems, DPC900) to generate a colorimetric signal proportional to PCSK9 concentration per the manufacturer's protocol. […]

PCSK9 = PCSK9 lowering in sandwich culture human hepatocytes (SCHH); type: cell-based; conditions: sandwich culture primary cryopreserved human hepatocytes, secreted PCSK9 by AlphaLISA
Procedure: PCSK9 Lowering and Compound Concentration Determination in Sandwich Culture Human Hepatocytes (SCHH)
Test compound in-vitro pharmacokinetic and pharmacodynamic relationships were measured in sandwich culture primary cryopreserved human hepatocytes. Within these studies SCHH cells (BD Biosciences IVT) were thawed at 37° C. then placed on ice, after which the cells were added to pre-warmed (37° C.) In VitroGRO-HT media and centrifuged at 50×g for 3 min. The cell pellet was re-suspended to 0.8×10^6 cells/mL in InVitroGRO-CP plating medium and cell viability determined by trypan blue exclusion. On day 1, hepatocyte suspensions were plated in BioCoat 96-well plates at a density of 80000 cells/well in a volume of 0.1 mL/well. After 18 to 24 hours of incubation at 37° C. in 5% CO2, cells were overlaid with ice-cold 0.25 mg/mL BD Matrigel Matrix Phenol Red-Free in incubation medium at 0.1 mL/well. Cultures were maintained at 37° C. in 5% CO2 in InVitroGRO-HI (FBS-free media), which was replaced every 24 hours and time course treatments were initiated on day 5. […] Percent PCSK9 lowering versus vehicle treated cells was then determined for each time point and the maximum response (and the corresponding concentration and time when observed) is reported under the Sandwich Culture Hepatocyte (SCHH) PCSK9 lowering summarized in Table 3. […]

Row | SMILES | Percent Plasma PCSK9 Lowering at 4 hours (human PCSK9) [%] | IC50 (PCSK9) [µM]
1 | CCOC(=O)O[C@@H](C)n1nnnc1-c1c(-c2ccc(C(=O)N(c3ncccc3Cl)[C@@H]3CCCNC3)cc2F)cnn1C [Example 7, ethyl (S)-1-{5-[4-(4-{(3-chloropyridin-2-yl)[(3R)-piperidin-3-yl]carbamoyl}-2-fluorophenyl)-1-methyl-1H-pyrazol-5-yl]-1H-tetrazol-1-yl}ethyl carbonate] | 72 | –
2 | CCOC(=O)O[C@@H](C)n1nnnc1-c1c(-c2ccc(C(=O)N(c3ncccc3Cl)[C@@H]3CCCNC3)cc2)cnn1C [Example 6, ethyl (S)-1-{5-[1-methyl-4-(4-{(3-chloropyridin-2-yl)[(3R)-piperidin-3-yl]carbamoyl}phenyl)-1H-pyrazol-5-yl]-1H-tetrazol-1-yl}ethyl carbonate] | 71 | –
3 | Cn1ncc(-c2ccc(C(=O)N(c3ncccc3Cl)[C@@H]3CCCNC3)cc2F)c1-c1nn[nH]n1 [Example 3, N-(3-chloropyridin-2-yl)-3-fluoro-4-[1-methyl-5-(2H-tetrazol-5-yl)-1H-pyrazol-4-yl]-N-[(3R)-piperidin-3-yl]benzamide] | – | 63.4

From patent US20160102074A1, “SUBSTITUTED AMIDE COMPOUNDS” (PFIZER INC., priority 2014, published 2016)
